Data reported in patent US20100286424A1 (priority 2007, published 2010).

How the values were obtained:
cell growth = assay type: cell-based
mouse = details: in vivo, po; cited from earlier work

Molecule | IC50 (cell growth) [µM] | LD50 (mouse)
Arsenious acid | 10 | 
Arsenic acid | 100 | 
C[As+](C)(C)CC(=O)[O-] [AB, arsenobetaine] |  | 10,000 mg/kg
